Among the data in paper PMC7074965, “Discovery of Two Brominated Oxindole Alkaloids as Staphylococcal DNA Gyrase and Pyruvate Kinase Inhibitors via Inverse Virtual Screening” (Microorganisms, 2020) are MIC and Pim-1 kinase inhibition values, retold here.

In assay [1] the test system is Escherichia coli ATCC 259228. The assay is described as follows: MIC determination, twofold serial dilution. Format: cell-based. The settings on record: read-out: MIC (E. coli). As to the method:
(§1) All the bacterial strains were maintained at −80 °C in 15% glycerol nutrient broth (Oxoid, Milan, Italy).
(§2) The twofold serial dilution approach was applied to determine the MICs of each compound. Each tested compound was dissolved in DMSO (Sigma, Milan, Italy) to prepare the test solutions. Many colonies of each tested bacterial strain were inoculated in 10 mL of sterilized Mueller–Hinton broth (MHB) (Oxoid) and incubated at 37 °C for 18–24 h. […] All data are reported as the mean of three independent experiments.

In assay [2] the test system is Pseudomonas aeruginosa ATCC9027. The experiment in a line: MIC determination, twofold serial dilution. The settings on record: read-out: MIC (P. aeruginosa). Format: cell-based. As to the method:
as §1, §2

The test system of assay [3] is Bacillus subtilis ATCC5230. The assay is described as follows: MIC determination, twofold serial dilution. Format: cell-based. The settings on record: read-out: MIC (B. subtilis). As for the experimental part:
as §1, §2

The test system of assay [4] is MRSA ATCC33591. The assay is described as follows: MIC determination, twofold serial dilution. It is filed as cell-based. The settings on record: Staphylococcus aureus, read-out: MIC (MRSA). As for the experimental part: as §1, §2
The test system of assay [5] is Pim-1 kinase. The arrangement: method as in PMID 30061488, PMID 30525020, PMID 31395834. The settings on record: previously reported; cited from earlier work.
[6] abbreviates: 24 h incubation, mean of three experiments.
The mark [7] stands for this setting: Escherichia coli, ATCC259228, 24 h.
Where [8] appears, read: Pseudomonas aeruginosa, ATCC9027, 24 h.
[9] abbreviates: Bacillus subtilis, ATCC5230, 24 h.
Setting [10] is: Escherichia coli, ATCC259228, 24 h incubation, mean of three experiments.
[11] abbreviates: Pseudomonas aeruginosa, ATCC9027, 24 h incubation, mean of three experiments.
Where [12] appears, read: Bacillus subtilis, ATCC5230, 24 h incubation, mean of three experiments.

Values after ≈ are worked out from the molar mass of the structure shown. Read-outs that look alike come from different tables or passages of the source. A value given as a limit tells only on which side of the number the result lay.

Usually MIC stands for the smallest concentration in the dilution series that meets the test's criterion for growth inhibition.

On to `CC(=O)/C=C1/C(=O)Nc2ccc(Br)cc21` [Compound 11, (E)-5-bromo-3-(2-oxopropylidene)indolin-2-one], for which the MIC in assay [1] (setting [6]), in assay [2] (setting [6]) and in assay [3] (setting [6]) was more than 256 µM each time.

Turning to `COC(=O)c1ccc(OC)cc1` [Compound 17, p-Anisic acid methyl ester], the MIC in assay [1] (setting [6]), in assay [2] (setting [6]) and in assay [3] (setting [6]) was more than 256 µM throughout.

Take `Nc1ccccc1C(=O)O` [Compound 19, Anthranilic acid]: the MIC in assay [1] (setting [7]), in assay [4] (24 h), in assay [2] (setting [8]) and in assay [3] (setting [9]) was more than 256 µM each time.

With `COc1ccc(C(=O)O)cc1` [Compound 16, p-Anisic acid], the MIC in assay [1] (setting [10]), in assay [4] (setting [6]), in assay [2] (setting [11]) and in assay [3] (setting [12]) was more than 256 µM each time.

Regarding `O=C(O)C(=O)Cc1c[nH]c2ccccc12` [Compound 15, Indole-3-pyruvic acid], the MIC in assay [1] (setting [10]), in assay [4] (setting [6]), in assay [2] (setting [11]) and in assay [3] (setting [12]) was more than 256 µM throughout.

On to `CCCCCCCCCCC/C=C\CCCCC(=O)O` [Compound 36, Petroselenic acid], for which the MIC in assay [1] (setting [6]), in assay [2] (setting [6]) and in assay [3] (setting [6]) was more than 256 µM throughout.

`O=Cc1ccc(O)cc1` [Compound 20, p-Hydroxy benzaldehyde]: the MIC in assay [1] (setting [6]), in assay [2] (setting [6]) and in assay [3] (setting [6]) was more than 256 µM each time.

Turning to Callysterol [Compound 28], the MIC in assay [1] (setting [6]), in assay [2] (setting [6]) and in assay [3] (setting [6]) was more than 256 µM each time.

Take `CC(C)CCC[C@@H](C)[C@H]1CC[C@H]2[C@@H]3CCC4=CC(=O)CC[C@]4(C)[C@H]3CC[C@]12C` [Compound 29, Cholestenone]: the MIC in assay [1] (setting [6]), in assay [2] (setting [6]) and in assay [3] (setting [6]) was more than 256 µM each time.

In the case of `O=C(O)c1cc(O)c2ccccc2c1O` [Compound 27, 1,4 Dihydroxy-2-naphthoic acid], the MIC in assay [1] (setting [6]), in assay [2] (setting [6]) and in assay [3] (setting [6]) was more than 256 µM throughout.

Regarding `O=C(O)Cc1ccccc1` [Compound 25, Phenyl acetic acid], the minimum inhibitory concentration (MIC) in assay [1] (setting [7]), in assay [4] (24 h), in assay [2] (setting [8]) and in assay [3] (setting [9]) was more than 256 µM throughout.

As for `CC(c1c[nH]c2ccccc12)c1c[nH]c2ccccc12` [Compound 4, Vibrindole], the MIC was 128 µM (≈ 33.3 µg/mL) in assay [1] (setting [10]), 64 µM (≈ 16.7 µg/mL) in assay [4] (setting [6]), more than 256 µM in assay [2] (setting [11]) and 64 µM (≈ 16.7 µg/mL) in assay [3] (setting [12]).

For `COc1ccc(/C=C/C(=O)/C=C2/C(=O)Nc3cc(Br)ccc32)cc1` [Compound 7, Saccharomon osp orine A], the MIC in assay [1] (setting [10]), in assay [4] (setting [6]), in assay [2] (setting [11]) and in assay [3] (setting [12]) was more than 256 µM throughout. Further, the Pim-1 kinase inhibition entry in assay [5] was “potent cytotoxic Pim-1 kinase inhibitors”.

`COc1cc(/C=C/C(=O)O)cc(OC)c1O` [Compound 24, Sinapic acid]: the MIC in assay [1] (setting [6]), in assay [2] (setting [6]) and in assay [3] (setting [6]) was more than 256 µM each time.

Consider `CC(C)[C@@H](C)/C=C/[C@@H](C)[C@H]1CC[C@@H]2[C@]1(C)CC[C@H]1[C@]23C=C[C@]2(C[C@@H](O)CC[C@]12C)OO3` [Compound 33, Ergosterol peroxide], for which the MIC in assay [1] (setting [10]), in assay [4] (setting [6]), in assay [2] (setting [11]) and in assay [3] (setting [12]) was more than 256 µM throughout.

As to `O=C1Nc2ccccc2C1(c1c[nH]c2ccccc12)c1c[nH]c2ccccc12` [Compound 3, Trisindoline], the MIC in assay [1] (setting [10]) was more than 256 µM; in assay [4] (setting [6]) it was 32 µM (≈ 11.6 µg/mL); in assay [2] (setting [11]), more than 256 µM; in assay [3] (setting [12]) it was 16 µM (≈ 5.81 µg/mL).

In the case of `OCCc1c[nH]c2ccccc12` [Compound 14, Tryptophol], the MIC in assay [1] (setting [10]), in assay [4] (setting [6]), in assay [2] (setting [11]) and in assay [3] (setting [12]) was more than 256 µM throughout.

`CC(=O)C[C@]1(O)C(=O)Nc2cc(Br)ccc21` [Compound 5, Convolutamidine F]: the MIC is more than 256 µM in assay [1] (setting [10]), 128 µM (≈ 36.4 µg/mL) in assay [4] (setting [6]), more than 256 µM in assay [2] (setting [11]) and 128 µM (≈ 36.4 µg/mL) in assay [3] (setting [12]). Also, in assay [5], the Pim-1 kinase inhibition entry was “potent cytotoxic Pim-1 kinase inhibitors”.

Turning to `COc1ccc(C(=O)OCc2ccccc2)cc1` [Compound 22, Benzyl anisate], the MIC in assay [1] (setting [6]), in assay [2] (setting [6]) and in assay [3] (setting [6]) was more than 256 µM each time.

Regarding `O=C1Nc2cc(Br)ccc2[C@@]1(O)c1c[nH]c2ccccc12` [Compound 6, (S) 6-bromo-3-hydroxy-3-(1H-indol-3-yl) indolin-2-one], the minimum inhibitory concentration (MIC) in assay [1] (setting [7]) was more than 256 µM; in assay [4] (24 h), more than 256 µM; in assay [2] (setting [8]), more than 256 µM; in assay [3] (setting [9]), 128 µM (≈ 43.9 µg/mL).

With `CC1=CCC2C(CC[C@@]2(C)O)C(C)(C)C1CC[C@@H]1[C@@]2(C)CCC(=O)C(C)(C)O[C@@H]2CC[C@]1(C)O` (stereo partly drawn) [Compound 34, Sipholenone A], the MIC in assay [1] (setting [10]), in assay [4] (setting [6]), in assay [2] (setting [11]) and in assay [3] (setting [12]) was more than 256 µM throughout.

As for `Cc1c[nH]c2ccccc12` [Compound 12, Skatole], the minimal inhibitory concentration (MIC) in assay [1] (setting [6]), in assay [2] (setting [6]) and in assay [3] (setting [6]) was more than 256 µM in each case.

In the case of `CC1=CCC2C(CC[C@@]2(C)O)C(C)(C)C1CC[C@@H]1[C@@]2(C)CC[C@@H](O)C(C)(C)O[C@@H]2CC[C@]1(C)O` (stereo partly drawn) [Compound 35, Sipholenol A], the MIC in assay [1] (setting [10]), in assay [4] (setting [6]), in assay [2] (setting [11]) and in assay [3] (setting [12]) was more than 256 µM each time.

Take `O=C(O)c1ccc2ccccc2c1O` [Compound 26, 1-Hydroxy-2-naphthoic acid]: the MIC in assay [1] (setting [10]), in assay [4] (setting [6]), in assay [2] (setting [11]) and in assay [3] (setting [12]) was more than 256 µM in each case.

For `COc1cc(C(C)=O)cc(OC)c1O` [Compound 23, Acetosyringone], the minimal inhibitory concentration (MIC) in assay [1] (setting [10]), in assay [4] (setting [6]), in assay [2] (setting [11]) and in assay [3] (setting [12]) was more than 256 µM throughout.

For the compound `O=C1Nc2ccccc2C1=O` [Compound 8, Isatine], the MIC in assay [1] (setting [6]), in assay [2] (setting [6]) and in assay [3] (setting [6]) was more than 256 µM in each case.

`CC[C@H](/C=C/[C@@H](C)[C@H]1CC[C@H]2[C@@H]3CCC4=CC(=O)CC[C@]4(C)[C@H]3CC[C@]12C)C(C)C` [Compound 31, Stigmasterone]: the MIC in assay [1] (setting [6]), in assay [2] (setting [6]) and in assay [3] (setting [6]) was more than 256 µM throughout.

As for `COc1cc(C(=O)O)cc(OC)c1O` [Compound 18, Syringic acid], the MIC in assay [1] (setting [10]), in assay [4] (setting [6]), in assay [2] (setting [11]) and in assay [3] (setting [12]) was more than 256 µM each time.

With `O=Cc1c[nH]c2ccccc12` [Compound 13, Indole-3-carbaldehyde], the MIC in assay [1] (setting [10]), in assay [4] (setting [6]), in assay [2] (setting [11]) and in assay [3] (setting [12]) was more than 256 µM each time.

`O=C1Nc2ccc(Br)cc2C1=O` [Compound 9, 5-Bromoisatine]: the MIC is more than 256 µM in assay [1] (setting [10]), 128 µM (≈ 28.9 µg/mL) in assay [4] (setting [6]), more than 256 µM in assay [2] (setting [11]) and 128 µM (≈ 28.9 µg/mL) in assay [3] (setting [12]).

Take `O=C1Nc2cc(Br)ccc2C1=O` [Compound 10, 6-Bromoisatine]: the minimal inhibitory concentration (MIC) was 128 µM (≈ 28.9 µg/mL) in assay [1] (setting [10]), 128 µM (≈ 28.9 µg/mL) in assay [4] (setting [6]), more than 256 µM in assay [2] (setting [11]) and 128 µM (≈ 28.9 µg/mL) in assay [3] (setting [12]).

As for `O=Cc1cc(O)ccc1O` [Compound 21, Gentisaldehyde], the MIC in assay [1] (setting [6]), in assay [2] (setting [6]) and in assay [3] (setting [6]) was more than 256 µM each time.

Consider `CC[C@H](C=C[C@@H](C)[C@H]1CC[C@H]2[C@@H]3CC(=O)C4=CC(=O)CC[C@]4(C)[C@H]3CC[C@]12C)C(C)C` [Compound 32, Stigmasta-4,22-dien-3,6-dione], for which the MIC in assay [1] (setting [6]), in assay [2] (setting [6]) and in assay [3] (setting [6]) was more than 256 µM throughout.

Consider `CC(C)CCC[C@@H](C)[C@H]1CC[C@H]2[C@@H]3CC[C@H]4CC(=O)CC[C@]4(C)[C@H]3CC[C@]12C` [Compound 30, 5α-Cholestanone], for which the MIC in assay [1] (setting [6]), in assay [2] (setting [6]) and in assay [3] (setting [6]) was more than 256 µM each time.
